Counter-ions that a name gives are not always drawn.
Molecular target: human PKR1 receptors (Homo sapiens (Human), UniProt Q8TCW9)
Assay: PKR1 antagonist assay: block of PK1-mediated intracellular calcium release (FLIPR Tetra)
Format: cell-based
Conditions: RBL2H3 cells expressing human PKR1; stimulation with PK1 at EC80; calcium fluorescence
Procedure: Prokineticin receptor 1 (PKR1) antagonists may be functionally assessed by measurement of change in intracellular calcium levels induced by Gq mediated increase in inositol triphosphate (IP3) levels. The ability of a compound to block the intracellular release of calcium mediated by PK1 in RBL2H3 cells expressing human PKR1 receptors is determined as a measure of the compound's antagonist activity in vitro.
Approximately 10,000 cells per assay well are seeded in normal culture medium in a 384 well plate (Corning). Twenty-four hours after seeding, the cells are loaded with a calcium sensitive fluorescent dye by replacing the culture medium with assay buffer (1× Hanks buffered saline, 25 mM HEPES, 0.1% w/v fatty acid free BSA (bovine serum albumin), pH 7.4) containing 1 mM probenecid and 1× Calcium 5 Reagent (Molecular Devices). Cells are incubated at 37° C. for 1 hour to allow for dye uptake.
To test for antagonist activity, test compounds at a final concentration range between 0.32 nM-10 μM (diluted in assay buffer) are added to the assay wells and allowed to incubate for 10 minutes prior to stimulation with PK1. After incubation with test compounds the assay plate is placed in a FLIPR Tetra (Molecular Devices) and PK1 (diluted in assay buffer) is added at the determined EC80 concentration (final). Ligand-dependent changes in intracellular calcium levels are determined by measuring changes in fluorescence of the dye at […] following excitation at 485 nm.

Sequence of human PKR1 receptors (Q8TCW9 whole entry): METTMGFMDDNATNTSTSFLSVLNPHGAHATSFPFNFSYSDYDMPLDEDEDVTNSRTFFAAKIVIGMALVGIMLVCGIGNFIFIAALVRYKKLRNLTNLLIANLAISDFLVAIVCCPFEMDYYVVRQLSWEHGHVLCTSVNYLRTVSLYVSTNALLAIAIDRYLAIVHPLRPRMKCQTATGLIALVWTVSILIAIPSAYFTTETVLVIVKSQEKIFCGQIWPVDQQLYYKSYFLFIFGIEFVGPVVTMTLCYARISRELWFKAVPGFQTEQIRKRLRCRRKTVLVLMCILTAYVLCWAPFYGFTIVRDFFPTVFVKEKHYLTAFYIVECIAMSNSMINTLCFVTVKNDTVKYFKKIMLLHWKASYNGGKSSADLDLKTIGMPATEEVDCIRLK

In order of falling IC50:
1. Cc1ccc(C2CCCN(C(=O)c3ccnc(N4CCCC4)c3)C2)cc1 (stereo not shown) [Example 35, 4-{[3-(4-Methylphenyl)piperidin-1-yl]carbonyl}-2-(pyrrolidin-1-yl)pyridine]  8820 nM
2. Cc1ccc(C2CCCN(C(=O)c3ccnc(N4CC(O)C4)c3)C2)cc1 (stereo not shown) [Example 41, 1-(4-{[3-(4-Methylphenyl)piperidin-1-yl]carbonyl}pyridin-2-yl)azetidin-3-ol]  8460 nM
3. CCOc1cc(C(=O)N2CCCC(c3ccc(Cl)cc3)C2)ccn1 (stereo not shown) [Example 42, 4-{[3-(4-Chlorophenyl)piperidin-1-yl]carbonyl}-2-ethoxypyridine]  8350 nM
4. CCCN(C)c1cc(C(=O)N2CCCC(c3ccc(C)cc3)C2)ccn1 (stereo not shown) [Example 39, N-Methyl-4-{[3-(4-methylphenyl)piperidin-1-yl]carbonyl}-N-propylpyridin-2-amine]  8220 nM
5. CN(C)c1cc(C(=O)N2CCCC(c3ccccc3Cl)C2)ccn1 (stereo not shown) [Example 46, 4-{[3-(2-Chlorophenyl)piperidin-1-yl]carbonyl}-N,N-dimethylpyridin-2-amine]  7790 nM
6. Cc1ccc(C2CCCN(C(=O)c3ccnc(N(C)C4CC4)c3)C2)cc1 (stereo not shown) [Example 43, N-Cyclopropyl-N-methyl-4-{[3-(4-methylphenyl)piperidin-1-yl]carbonyl}pyridin-2-amine]  7050 nM
7. Cc1ccc(C2CCCN(C(=O)c3ccnc(N(C)C(C)C)c3)C2)cc1 (stereo not shown) [Example 40, N-Methyl-4-{[3-(4-methylphenyl)piperidin-1-yl]carbonyl}-N-(propan-2-yl)pyridin-2-amine]  7030 nM
8. Cc1ccc(C2CCCN(C(=O)c3ccnc(N4CC(F)(F)C4)c3)C2)cc1 (stereo not shown) [Example 38, 2-(3,3-Difluoroazetidin-1-yl)-4-{[3-(4-methylphenyl)piperidin-1-yl]carbonyl}pyridine]  6500 nM
9. CCN(C)c1cc(C(=O)N2CCCC(c3ccc(C)cc3)C2)ccn1 (stereo not shown) [Example 37, N-Ethyl-N-methyl-4-{[3-(4-methylphenyl)piperidin-1-yl]carbonyl}pyridin-2-amine]  5530 nM
10. COc1cccc([C@@H]2CCCN(C(=O)c3ccnc(N(C)C)c3)C2)c1 [Example 36, 4-{[(3S)-3-(3-Methoxyphenyl)piperidin-1-yl]carbonyl}-N,N-dimethylpyridin-2-amine]  5510 nM
11. COc1cc(C(=O)N2CCCC(c3ccc(C)cc3)C2)ccn1 (stereo not shown) [Example 34, 2-Methoxy-4-{[3-(4-methylphenyl)piperidin-1-yl]carbonyl}pyridine]  5270 nM
12. CN(C)c1cc(C(=O)N2CCCC(c3ccc(C(F)(F)F)cc3)C2)ccn1 (stereo not shown) [Example 44, N,N-Dimethyl-4-({3-[4-(trifluoromethyl)phenyl]piperidin-1-yl}carbonyl)pyridin-2-amine formate]  4400 nM
13. O=C(c1ccnc(Cl)c1)N1CCCC(c2ccc(Cl)cc2)C1 (stereo not shown) [Example 29, 2-Chloro-4-{[3-(4-chlorophenyl)piperidin-1-yl]carbonyl}pyridine]  3290 nM
14. CNc1cc(C(=O)N2CCCC(c3ccc(C(F)(F)F)cc3)C2)ccn1 (stereo not shown) [Example 53, N-Methyl-4-({3-[4-(trifluoromethyl)phenyl]piperidin-1-yl}carbonyl)pyridin-2-amine]  2920 nM
15. CN(C)c1cc(C(=O)N2CCCC(c3ccccc3C#N)C2)ccn1 (stereo not shown) [Example 67, 2-(1-{[2-(Dimethylamino)pyridin-4-yl]carbonyl}piperidin-3-yl)benzonitrile]  2260 nM
16. CCc1cc(C(=O)N2CCCC(c3ccccc3OC)C2)ccn1 (stereo not shown) [Example 59, 2-Ethyl-4-{[3-(2-methoxyphenyl)piperidin-1-yl]carbonyl}pyridine]  1600 nM
17. CN(C)c1cc(C(=O)N2CCCC(c3ccccc3OC(F)(F)F)C2)ccn1 (stereo not shown) [Example 60, N,N-Dimethyl-4-({3-[2-(trifluoromethoxy)phenyl]piperidin-1-yl}carbonyl)pyridin-2-amine]  1600 nM
18. Cc1cc(Cl)cc(C)c1C1CCCN(C(=O)c2ccnc(N(C)C)c2)C1 (stereo not shown) [Example 68, 4-{[3-(4-Chloro-2,6-dimethylphenyl)piperidin-1-yl]carbonyl}-N,N-dimethylpyridin-2-amine]  1540 nM
19. Cc1cc(C(=O)N2CCCC(c3ccc(Cl)cc3)C2)cc(C)n1 (stereo not shown) [Example 28, 4-{[3-(4-Chlorophenyl)piperidin-1-yl]carbonyl}-2,6-dimethylpyridine]  1330 nM
20. CC(C)c1cc(C(=O)N2CCCC(c3ccc(Cl)cc3)C2)ccn1 (stereo not shown) [Example 30, 4-{[3-(4-Chlorophenyl)piperidin-1-yl]carbonyl}-2-(propan-2-yl)pyridine]  830 nM
21. CCc1cc(C(=O)N2CCCC(c3ccccc3C(F)(F)F)C2)ccn1 (stereo not shown) [Example 58, 2-Ethyl-4-({3-[2-(trifluoromethyl)phenyl]piperidin-1-yl}carbonyl)pyridine]  820 nM
22. CN(C)c1cc(C(=O)N2CCCC(c3ccc(Cl)cc3)C2)cnn1 (stereo not shown) [Example 69, 5-{[3-(4-Chlorophenyl)piperidin-1-yl]carbonyl}-N,N-dimethylpyridazin-3-amine]  810 nM
23. CN(C)c1cc(C(=O)N2CCCC(c3ccccc3OC(F)F)C2)ccn1 (stereo not shown) [Example 66, 4-({3-[2-(Difluoromethoxy)phenyl]piperidin-1-yl}carbonyl)-N,N-dimethylpyridin-2-amine]  700 nM
24. CCc1cc(C(=O)N2CCCC(c3ccc(Cl)cc3)C2)ccn1 (stereo not shown) [Example 52, 4-{[3-(4-Chlorophenyl)piperidin-1-yl]carbonyl}-2-ethylpyridine]  510 nM
25. COc1cc(C(=O)N2CCCC(c3ccc(Cl)cc3C)C2)ccn1 (stereo not shown) [Example 32, 4-{[3-(4-Chloro-2-methylphenyl)piperidin-1-yl]carbonyl}-2-methoxypyridine]  490 nM
26. COc1ccc(C2CCCN(C(=O)c3ccnc(N(C)C)c3)C2)cc1 (stereo not shown) [Example 47, 4-{[3-(4-Methoxyphenyl)piperidin-1-yl]carbonyl}-N,N-dimethylpyridin-2-amine]  460 nM
27. CNc1cc(C(=O)N2CCCC(c3ccccc3OC)C2)ccn1 (stereo not shown) [Example 56, 4-{[3-(2-Methoxyphenyl)piperidin-1-yl]carbonyl}-N-methylpyridin-2-amine]  440 nM
28. Cc1ccc(C2CCCN(C(=O)c3ccnc(N(C)C)c3)C2)cc1 (stereo not shown) [Example 49, N,N-Dimethyl-4-{[3-(4-methylphenyl)piperidin-1-yl]carbonyl}pyridin-2-amine]  420 nM
29. COc1ccccc1C1CCCN(C(=O)c2ccnc(N(C)C)c2)C1 (stereo not shown) [Example 48, 4-{[3-(2-Methoxyphenyl)piperidin-1-yl]carbonyl}-N,N-dimethylpyridin-2-amine]  410 nM
30. CNc1cc(C(=O)N2CCCC(c3ccc(OC)cc3)C2)ccn1 (stereo not shown) [Example 55, 4-{[3-(4-Methoxyphenyl)piperidin-1-yl]carbonyl}-N-methylpyridin-2-amine hemi formate]  350 nM
31. CNc1cc(C(=O)N2CCCC(c3ccccc3C(F)(F)F)C2)ccn1 (stereo not shown) [Example 54, N-Methyl-4-({3-[2-(trifluoromethyl)phenyl]piperidin-1-yl}carbonyl)pyridin-2-amine]  230 nM
32. CN(C)c1cc(C(=O)N2CCCC(c3ccccc3C(F)(F)F)C2)ccn1 (stereo not shown) [Example 45, N,N-Dimethyl-4-({3-[2-(trifluoromethyl)phenyl]piperidin-1-yl}carbonyl)pyridin-2-amine]  220 nM
33. CCOc1cc(Cl)ccc1C1CCCN(C(=O)c2ccnc(N(C)C)c2)C1 (stereo not shown) [Example 61, 4-{[3-(4-Chloro-2-ethoxyphenyl)piperidin-1-yl]carbonyl}-N,N-dimethylpyridin-2-amine]  100 nM
34. COc1ccc(C2CCCN(C(=O)c3ccnc(N(C)C)c3)C2)c(C(F)(F)F)c1 (stereo not shown) [Example 62, 4-({3-[4-Methoxy-2-(trifluoromethyl)phenyl]piperidin-1-yl}carbonyl)-N,N-dimethylpyridin-2-amine]  100 nM
35. Cc1cc(Cl)ccc1C1CCCN(C(=O)c2ccnc(N3CCC3)c2)C1 (stereo not shown) [Example 33, 2-(Azetidin-1-yl)-4-{[3-(4-chloro-2-methylphenyl)piperidin-1-yl]carbonyl}pyridine]  90 nM
36. CCOc1cc(Cl)ccc1C1CCCN(C(=O)c2ccnc(NC)c2)C1 (stereo not shown) [Example 65, 4-{[3-(4-Chloro-2-ethoxyphenyl)piperidin-1-yl]carbonyl}-N-methylpyridin-2-amine]  70 nM
37. CNc1cc(C(=O)N2CCCC(c3ccc(Cl)cc3C(F)(F)F)C2)ccn1 (stereo not shown) [Example 57, 4-({3-[4-Chloro-2-(trifluoromethyl)phenyl]piperidin-1-yl}carbonyl)-N-methylpyridin-2-amine]  50 nM
38. CNc1cc(C(=O)N2CCCC(c3ccc(OC)cc3C(F)(F)F)C2)ccn1 (stereo not shown) [Example 64, 4-({3-[4-Methoxy-2-(trifluoromethyl)phenyl]piperidin-1-yl}carbonyl)-N-methylpyridin-2-amine formate]  50 nM
39. CNc1cc(C(=O)N2CCCC(c3ccc(OC)cc3C)C2)ccn1 (stereo not shown) [Example 63, 4-{[3-(4-Methoxy-2-methylphenyl)piperidin-1-yl]carbonyl}-N-methylpyridin-2-amine]  40 nM
40. CNc1cc(C(=O)N2CCCC(c3ccc(Cl)cc3C)C2)ccn1 (stereo not shown) [Example 31, 4-{[3-(4-Chloro-2-methylphenyl)piperidin-1-yl]carbonyl}-N-methylpyridin-2-amine]  30 nM

Reference: patent US9790201B2, “Piperidine and azepine derivatives as prokineticin receptor modulators” (TAKEDA PHARMACEUTICAL COMPANY LIMITED, priority 2013, dated 2017)
